System: L-929 mouse fibroblast cells
Type: cell-based
Details: 10 ppm
Experimental: Comparative studies are conducted to evaluate the cytotoxicity of individual aqueous lens disinfecting and preservative solutions containing PHMB, benzalkonium chloride and chlorhexidine. The studies utilize the Agar Overlay Assay Technique published in the Journal of Pharmaceutical Sciences, Vol. 54 (1965) pp 1545-1547 by W. L. Guess et al. The technique utilized is similar to the Zone of Inhibition Method of Otten et al (Example VII), however, when the lenses are removed from the preservative solutions they are only rinsed with isotonic saline solution to remove residual preservative. The lenses are then placed on L-929 mouse fibroblast cells to ascertain the presence of any cytotoxic response or cell inflammation which is noted by a lysing of the cells.

[H]/N=C(\N/C(=N/[H])NCCCCCCNC(=N)NC(=N)Nc1ccc(Cl)cc1)Nc1ccc(Cl)cc1 [Chlorhexidine, chlorhexidine gluconate]
Percent Cells Lysed: 0/0
Width of Decolorized Zone: 0/0
